Results reported in patent EP2987533B1, “7-substituted piperazin-1-yl fluoroquinolone compounds, their use in the treatment of cancer, pharmaceutical compositions and a method for preparation” (priority 2014, dated 2016).

What was measured:
[1] = test system: SK-MEL-2; assay: NCI five-dose SRB growth assay; format: cell-based; conditions: Homo sapiens; SK-MEL-2 (Melanoma), 48 h
[2] = test system: HL-60(TB); assay: NCI five-dose SRB growth assay; format: cell-based; conditions: Homo sapiens; HL-60(TB) (Leukemia), 48 h
[3] = test system: 786-0; assay: NCI five-dose SRB growth assay; format: cell-based; conditions: Homo sapiens; 786-0 (Renal Cancer), 48 h
[4] = test system: SN12C; assay: NCI five-dose SRB growth assay; format: cell-based; conditions: Homo sapiens; SN12C (Renal Cancer), 48 h
[5] = test system: ACHN; assay: NCI five-dose SRB growth assay; format: cell-based; conditions: Homo sapiens; ACHN (Renal Cancer), 48 h
[6] = test system: breast cancer; assay: NCI five-dose SRB assay, subpanel average; conditions: 48 h; for GI50 / CC50: Homo sapiens; for GI50: read-out: GI50 (median growth inhibitory); for CC50: read-out: LC50 (median lethal); for TGI (total growth inhibitory): average over breast cancer subpanel, five concentrations
[7] = test system: M14; assay: NCI five-dose SRB growth assay; format: cell-based; conditions: Homo sapiens; M14 (Melanoma), 48 h
[8] = test system: HCT-15; assay: NCI five-dose SRB growth assay; format: cell-based; conditions: Homo sapiens; HCT-15 (Colon Cancer), 48 h
[9] = test system: BT-549; assay: NCI five-dose SRB growth assay; format: cell-based; conditions: Homo sapiens; BT-549 (Breast Cancer), 48 h
[10] = test system: SNB-19; assay: NCI five-dose SRB growth assay; format: cell-based; conditions: Homo sapiens; SNB-19 (CNS Cancer), 48 h
[11] = test system: MCF7; assay: NCI one-dose SRB growth assay; format: cell-based; conditions: Homo sapiens; MCF7 (Breast Cancer), 10^-5 M, 48 h; read-out: % Growth Inhibition (GI %)
Procedure, shortened: (§1)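 Read-out: sulforhodamine B protein-binding dye, measured spectrophotometrically, expressed as percent growth of treated versus untreated cells. Cultures received test compound at 10^-5M and were incubated 48 h.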

[12] = test system: PC-3; assay: NCI one-dose SRB growth assay; format: cell-based; conditions: Homo sapiens; PC-3 (Prostate Cancer), 10^-5 M, 48 h; read-out: % Growth Inhibition (GI %)
Procedure, shortened: (§2)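 Growth percentage versus untreated controls was derived from SRB protein-dye absorbance after cells were incubated 48 h with test compound at a single 10^-5M dose.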

[13] = test system: SK-MEL-2; assay: NCI one-dose SRB growth assay; format: cell-based; conditions: Homo sapiens; SK-MEL-2 (Melanoma), 10^-5 M, 48 h; read-out: % Growth Inhibition (GI %)
[14] = test system: SF-539; assay: NCI one-dose SRB growth assay; format: cell-based; conditions: Homo sapiens; SF-539 (CNS Cancer), 10^-5 M, 48 h; read-out: % Growth Inhibition (GI %)
Procedure, shortened: as §1

[15] = test system: CAKI-1; assay: NCI one-dose SRB growth assay; format: cell-based; conditions: Homo sapiens; CAKI-1 (Renal Cancer), 10^-5 M, 48 h; read-out: % Growth Inhibition (GI %)
Procedure, shortened: as §1

[16] = test system: RXF 393; assay: NCI one-dose SRB growth assay; format: cell-based; conditions: Homo sapiens; RXF 393 (Renal Cancer), 10^-5 M, 48 h; read-out: % Growth Inhibition (GI %)
Procedure, shortened: as §1

[17] = test system: HOP-62; assay: NCI one-dose SRB growth assay; format: cell-based; conditions: Homo sapiens; HOP-62 (Non-Small Cell Lung Cancer), 10^-5 M, 48 h; read-out: % Growth Inhibition (GI %)
Procedure, shortened: as §1

[18] = test system: 786-0; assay: NCI one-dose SRB growth assay; format: cell-based; conditions: Homo sapiens; 786-0 (Renal Cancer), 10^-5 M, 48 h; read-out: % Growth Inhibition (GI %)
Procedure, shortened: as §1

[19] = test system: HOP-92; assay: NCI one-dose SRB growth assay; format: cell-based; conditions: Homo sapiens; HOP-92 (Non-Small Cell Lung Cancer), 10^-5 M, 48 h; read-out: % Growth Inhibition (GI %)
Procedure, shortened: as §1

[20] = test system: MDA-MB-435; assay: NCI one-dose SRB growth assay; format: cell-based; conditions: Homo sapiens; MDA-MB-435 (Melanoma), 10^-5 M, 48 h; read-out: % Growth Inhibition (GI %)
Procedure, shortened: as §1

[21] = test system: OVCAR-5; assay: NCI one-dose SRB growth assay; format: cell-based; conditions: Homo sapiens; OVCAR-5 (Ovarian Cancer), 10^-5 M, 48 h; read-out: % Growth Inhibition (GI %)
Procedure, shortened: as §1

[22] = test system: PRMI-8226; assay: NCI one-dose SRB growth assay; format: cell-based; conditions: Homo sapiens; PRMI-8226 (Leukemia), 10^-5 M, 48 h; read-out: % Growth Inhibition (GI %)
Procedure, shortened: as §2

[23] = test system: NCI-H23; assay: NCI one-dose SRB growth assay; format: cell-based; conditions: Homo sapiens; NCI-H23 (Non-Small Cell Lung Cancer), 10^-5 M, 48 h; read-out: % Growth Inhibition (GI %)
Procedure, shortened: as §1

[24] = test system: IGROV1; assay: NCI one-dose SRB growth assay; format: cell-based; conditions: Homo sapiens, IGROV-1; IGROV1 (Ovarian Cancer), 10^-5 M, 48 h; read-out: % Growth Inhibition (GI %)
[25] = test system: T-47D; assay: NCI one-dose SRB growth assay; format: cell-based; conditions: Homo sapiens, T47D; T-47D (Breast Cancer), 10^-5 M, 48 h; read-out: % Growth Inhibition (GI %)
Procedure, shortened: as §1

[26] = test system: TK-10; assay: NCI five-dose SRB growth assay; format: cell-based; conditions: Homo sapiens; TK-10 (Renal Cancer), 48 h
[27] = test system: prostate cancer; assay: NCI five-dose SRB assay, subpanel average; conditions: 48 h; for GI50 / CC50: Homo sapiens; for GI50: read-out: GI50 (median growth inhibitory); for CC50: read-out: LC50 (median lethal); for TGI (total growth inhibitory): average over prostate cancer subpanel, five concentrations
[28] = test system: A498; assay: NCI five-dose SRB growth assay; format: cell-based; conditions: Homo sapiens; A498 (Renal Cancer), 48 h
[29] = test system: SK-OV-3; assay: NCI five-dose SRB growth assay; format: cell-based; conditions: Homo sapiens; SK-OV-3 (Ovarian Cancer), 48 h

Structure (SMILES) | GI50 [6] [µM] | CC50 [6] [µM] | TGI (total growth inhibitory) [6] | inhibition at 10 µM [11] [%] | inhibition at 10 µM [12] [%] | inhibition at 10 µM [13] [%] | inhibition at 10 µM [14] [%] | inhibition at 10 µM [15] [%] | inhibition at 10 µM [16] [%] | inhibition at 10 µM [17] [%] | inhibition at 10 µM [18] [%] | inhibition at 10 µM [19] [%] | inhibition at 10 µM [20] [%] | inhibition at 10 µM [21] [%] | inhibition at 10 µM [22] [%] | inhibition at 10 µM [23] [%] | inhibition at 10 µM [24] [%] | inhibition at 10 µM [25] [%] | GI50 [27] [µM] | CC50 [27] [µM] | other results
O=C(O)c1cn(C2CC2)c2cc(N3CCN(S(=O)(=O)c4ccc(Cl)c(Cl)c4)CC3)c(F)cc2c1=O [Compound 3b] | 3.04 | > 100 | 81.37 µM | 86.5 | 83.8 | > 100 | 88.6 | 96.9 | 71 | 84.8 | 72.2 | 87.8 | 87 | 87.5 | 95.1 | 98.2 | 70.7 | 83.7 | 3.29 | > 100 | GI50 [1]: 3.16 µM; GI50 [2]: 2.04 µM; GI50 [3]: 4.02 µM; GI50 [4]: 2.97 µM; GI50 [5]: 3.1 µM; GI50 [7]: 4.06 µM; GI50 [8]: 3.3 µM; GI50 [9]: 2.98 µM; GI50 [10]: 3.25 µM; GI50 [26]: 4.31 µM; TGI (total growth inhibitory) [27]: c (Compounds showed values > 100µM); GI50 [28]: 2.91 µM
O=c1[nH]cc(F)c(=O)[nH]1 [Compound 5-FU, 5-fluorouracil, reference compound] | 76.4 | > 100 | c (Compounds showed values > 100µM) | 11.5 | 58.2 | 95.5 | > 100 | 39.4 | 34.3 | 47.8 | 48.7 | 50.6 | 36.6 | 44.3 | 41.4 | 39 | 51.2 | 56.7 | 22.7 | > 100 | TGI (total growth inhibitory) [27]: c (Compounds showed values > 100µM)
CCn1cc(C(=O)O)c(=O)c2cc(F)c(N3CCN(S(=O)(=O)c4c(C)cc(C)cc4C)CC3)cc21 [Compound 6a] |  |  |  | < 10 | 38.9 | 11.3 | 20.1 | 10.7 | 11.1 | 28.5 | < 10 | 12.6 | 10.9 | 11.4 | 35.9 | 22.3 | 20.6 | 25.9 |  |  | 
Cc1cc(C)c(S(=O)(=O)N2CCN(c3cc4c(cc3F)c(=O)c(C(=O)O)cn4C3CC3)CC2)c(C)c1 [Compound 6b] | 2.85 | > 100 | 76.89 µM | 46 | 32.1 | < 10 | 53.5 | 32.9 | 48.7 | 42.7 | 24.4 | 53.1 | 23.9 | 57.8 | 77.7 | 42.6 | 64.3 | 37 | 3.4 | > 100 | GI50 [3]: 4.08 µM; GI50 [4]: 2.61 µM; GI50 [5]: 2.46 µM; GI50 [7]: 4.69 µM; GI50 [8]: 2.55 µM; GI50 [9]: 3.34 µM; GI50 [10]: 2.56 µM; GI50 [26]: 4.57 µM; GI50 [29]: 3.02 µM; TGI (total growth inhibitory) [27]: c (Compounds showed values > 100µM); GI50 [28]: 2.37 µM
